The values below come from patent publication US11572358B2, “Solid forms of an sGC stimulator” (Cyclerion Therapeutics, Inc., priority 2016, dated 2023).

The data set in a line: Storage stability at 40° C. and 75% relative humidity, XRPD trace before and after. The data set is classed as physicochemical. The settings on record: stored for 14 months at 40° C. and 75% relative humidity. On the procedure: When comparing XRPD spectra, a spectrum will be “substantially similar” to one shown in this disclosure for a particular solid form of Compound I, wherein the characteristic peaks in said spectrum are measured at the same values of °2θ as those shown in the figure of this disclosure, or within a range of + or −0.5 units of °2θ from those peaks shown in said figure.
X-Ray Powder Diffraction traces were obtained using a D8 Advance, Bruker apparatus; using one of two Methods:
Scan 5-45° 2-theta, 0.02° step size, 1 sec per step; or
Scan 3-40° 2-theta, 0.037° step size, 1.5 sec per step

Turning to `NC(=O)[C@](O)(CNc1nc(-c2cc(-c3ccon3)n(Cc3ccccc3F)n2)ncc1F)C(F)(F)F` [Form B, (R)-3,3,3-trifluoro-2-(((5-fluoro-2-(1-(2-fluorobenzyl)-5-(isoxazol-3-yl)-1H-pyrazol-3-yl)pyrimidin-4-yl)amino)methyl)-2-hydroxypropanamide], the “XRPD trace after storage” value is listed as “essentially unchanged”.
